Reference: patent publication US9315517B2, “Imidazol-piperidinyl derivatives as modulators of kinase activity” (Merck Patent GmbH, priority 2012, dated 2016)

Tests used:
[1] = molecular target: T1, P70S6K (T412E mutant, Millipore) (Homo sapiens, UniProt P23443, T412E); test: P70S6K enzyme assay; type: biochemical; details: enzyme inhibition; 24 μM ATP, 90 min at 25° C., Caliper mobility shift
T1 construct: purchased Millipore
Experimental: (§1) The IC50 values reported for the compounds in the Experimental section were derived from the following protocol for the p70S6K and AKT enzyme assays.
P70S6K inhibitor compounds were diluted and plated in 96 well plates. A reaction mixture including the following components was then added to the compound plate to initiate the enzyme reaction; P70S6K (3 nM, T412E mutant, Millipore) was mixed with 24 μM ATP in an assay buffer containing 100 mM Hepes (pH 7.5), 5 mM MgCl2, 1 mM DTT, 0.015% Brij and 1 μM of the substrate peptide FITC-AHA-AKRRRLSSLRA-OH (derived from the S6 ribosomal protein sequence, FITC=fluorescein isothiocyanate, AHA=6-aminohexanoic acid). The reaction was incubated for 90 min at 25° C., before the addition of 10 mM EDTA to stop the reaction. The proportion of substrate and product (phosphorylated) peptide was analysed on a Caliper Life Sciences Lab Chip 3000, using a pressure of −1.4 psi, and upstream and downstream voltages of −3000 and −700 respectively. Product peaks were resolved before substrate peaks on the resulting chromatograms.

His-AKT (Full Length) = molecular target: T2, His-AKT (Full Length) (Homo sapiens, UniProt P31749); test: AKT enzyme assay; type: biochemical; details: enzyme inhibition; 160 uM ATP, 90 min at 25° C., Caliper mobility shift
T2 construct: 0.1 ng/μl His-AKT (Full Length); His; purchased Invitrogen P2999
T2 sequence (P31749 whole entry): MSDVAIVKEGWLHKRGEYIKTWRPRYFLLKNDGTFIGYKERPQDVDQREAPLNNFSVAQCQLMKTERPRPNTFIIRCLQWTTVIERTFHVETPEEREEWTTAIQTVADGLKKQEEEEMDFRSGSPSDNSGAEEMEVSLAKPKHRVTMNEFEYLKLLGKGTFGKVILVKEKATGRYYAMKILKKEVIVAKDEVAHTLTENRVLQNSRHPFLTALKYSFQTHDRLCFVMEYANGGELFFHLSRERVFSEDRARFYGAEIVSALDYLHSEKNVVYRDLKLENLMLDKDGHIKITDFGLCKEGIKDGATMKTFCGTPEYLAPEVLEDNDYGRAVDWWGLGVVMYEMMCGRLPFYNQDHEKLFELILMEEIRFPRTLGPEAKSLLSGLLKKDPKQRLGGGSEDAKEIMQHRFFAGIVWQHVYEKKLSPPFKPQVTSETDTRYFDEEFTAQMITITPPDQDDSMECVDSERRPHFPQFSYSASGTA
Experimental: as §1
A TTP Mosquito liquid handling instrument was used to place 125 nl of the appropriate concentration of inhibitor in 100% DMSO (for a dose response curve calculation) into each well of a 384-well plate. To this reaction components were added to a final volume of 12.5 μl: • 0.1 ng/μl His-AKT (Full Length), (Invitrogen, Part # P2999, Lot # 641228C). • 160 uM ATP (Fluke, 02055) • 1 mM DTT (Sigma, D0632) • 1 mM MgCl2 (Sigma, M1028) • 1 μM substrate peptide (sequence FITC-AHA-GRPRTSSFAEG-NH2), synthesized by Tufts Peptide Synthesis service. • 100 mM HEPES pH 7.5 (Calbiochem, 391338) • 0.015% Brij-35 (Sigma, B4184)
The reaction was incubated for 90 min at 25° C., and then stopped by the addition of 70 μl of Stop buffer (100 mM HEPES pH 7.5, 0.015% Brij-35, 10 mM EDTA (Sigma, E7889)).
The plate was read on a Caliper LC 3000 in an Off-Chip mobility shift assay format, using the following parameters for a 12-sipper chip: screening pressure −2.3 psi, upstream voltage −500, and downstream voltage −3000. These conditions caused unphosphorylated substrate and phosphorylated product peptide to resolve as separate peaks allowing direct measurement of percentage of conversion of substrate to product. The percent conversion was plotted against concentration of inhibitor to produce a sigmoidal dose response curve, from which an IC50 was calculated.

T1 sequence (P23443 whole entry T412E): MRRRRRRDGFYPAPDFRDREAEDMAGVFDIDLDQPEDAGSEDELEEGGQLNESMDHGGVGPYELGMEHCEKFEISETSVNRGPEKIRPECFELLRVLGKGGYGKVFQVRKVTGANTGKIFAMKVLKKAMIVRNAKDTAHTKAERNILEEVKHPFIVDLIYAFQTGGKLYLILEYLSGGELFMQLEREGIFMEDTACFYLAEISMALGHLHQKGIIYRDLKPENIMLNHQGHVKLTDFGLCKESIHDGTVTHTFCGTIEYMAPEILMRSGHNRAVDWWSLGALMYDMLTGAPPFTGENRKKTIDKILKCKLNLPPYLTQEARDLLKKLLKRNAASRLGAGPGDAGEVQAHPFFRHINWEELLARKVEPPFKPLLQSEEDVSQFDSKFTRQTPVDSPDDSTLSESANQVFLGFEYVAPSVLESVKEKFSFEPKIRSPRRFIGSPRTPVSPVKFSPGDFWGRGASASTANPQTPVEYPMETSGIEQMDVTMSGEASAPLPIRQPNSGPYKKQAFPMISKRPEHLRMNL

IC50 [1] [nM] | IC50 (His-AKT (Full Length)) [nM] | SMILES
< 25 | < 25 | Fc1ccc(-c2cn(CCN3CCC3)c(C3CCN(c4ncnc5c4OCCN5)CC3)n2)cc1C(F)(F)F [Compound A1, 4-(4-(1-(2-(azetidin-1-yl)ethyl)-4-(4-fluoro-3-(trifluoromethyl)phenyl)-1H-imidazol-2-yl)piperidin-1-yl)-7,8-dihydro-6H-pyrimido[5,4-b][1,4]oxazine]
< 25 | 26 to 100 | FC(F)(F)c1cc(-c2cn(CCN3CCC3)c(C3CCN(c4ncnc5c4OCCN5)CC3)n2)ccn1 [Compound A2, 4-(4-(1-(2-(azetidin-1-yl)ethyl)-4-(2-(trifluoromethyl)pyridin-4-yl)-1H-imidazol-2-yl)piperidin-1-yl)-7,8-dihydro-6H-pyrimido[5,4-b][1,4]oxazine]
< 25 | < 25 | CN(C)CCn1cc(-c2ccc(F)c(C(F)(F)F)c2)nc1C1CCN(c2ncnc3c2CCN3)CC1 [Compound A3, 2-(2-(1-(6,7-dihydro-5H-pyrrolo[2,3-d]pyrimidin-4-yl)piperidin-4-yl)-4-(4-fluoro-3-(trifluoromethyl)phenyl)-1H-imidazol-1-yl)-N,N-dimethylethanamine]
< 25 | 26 to 100 | CN(C)CCn1cc(-c2ccc(F)c(C(F)(F)F)c2)nc1C1CCN(c2ccnc3c2CCCN3)CC1 [Compound A5, 2-(4-(4-fluoro-3-(trifluoromethyl)phenyl)-2-(1-(5,6,7,8-tetrahydro-1,8-naphthyridin-4-yl)piperidin-4-yl)-1H-imidazol-1-yl)-N,N-dimethylethanamine]
< 25 | < 25 | CN(C)CCn1cc(-c2ccc(F)c(C(F)(F)F)c2)nc1C1CCN(c2ncnc3c2OCCN3)CC1 [Compound A6, {2-[2-[1-(7,8-Dihydro-6H-pyrimido[5,4-b][1,4]oxazin-4-yl)-piperidin-4-yl]-4-(4-fluoro-3-trifluoromethyl-phenyl)-imidazol-1-yl]-ethyl}-dimethylamine]
< 25 | 26 to 100 | Cc1cc(-c2cn(CCN(C)C)c(C3CCN(c4ncnc5c4OCCN5)CC3)n2)ccc1F [Compound A7, {2-[2-[1-(7,8-Dihydro-6H-pyrimido[5,4-b][1,4]oxazin-4-yl)-piperidin-4-yl]-4-(4-fluoro-3-methyl-phenyl)-imidazol-1-yl]-ethyl}-dimethylamine]
< 25 | < 25 | COc1cc(-c2cn(CCN(C)C)c(C3CCN(c4ncnc5c4OCCN5)CC3)n2)ccc1F [Compound A8, {2-[2-[1-(7,8-Dihydro-6H-pyrimido[5,4-b][1,4]oxazin-4-yl)-piperidin-4-yl]-4-(4-fluoro-3-methoxy-phenyl)-imidazol-1-yl]-ethyl}-dimethylamine]
< 25 | < 25 | CN(C)CCn1cc(-c2ccc(F)c(Cl)c2)nc1C1CCN(c2ncnc3c2OCCN3)CC1 [Compound A9, (2-{4-(3-Chloro-4-fluoro-phenyl)-2-[1-(7,8-dihydro-6H-pyrimido[5,4-b][1,4]oxazin-4-yl)-piperidin-4-yl]-imidazol-1-yl}-ethyl)-dimethylamine]
< 25 | 26 to 100 | CN(C)CCn1cc(-c2ccnc(C(F)(F)F)c2)nc1C1CCN(c2ncnc3c2OCCN3)CC1 [Compound A10, {2-[2-[1-(7,8-Dihydro-6H-pyrimido[5,4-b][1,4]oxazin-4-yl)-piperidin-4-yl]-4-(2-trifluoromethyl-pyridin-4-yl)-imidazol-1-yl]-ethyl}-dimethylamine]
< 25 | < 25 | Cc1cc(-c2cn(CCN3CCC3)c(C3CCN(c4ncnc5c4OCCN5)CC3)n2)ccc1F [Compound A11, 4-{4-[1-(2-Azetidin-1-yl-ethyl)-4-(4-fluoro-3-methyl-phenyl)-1H-imidazol-2-yl]-piperidin-1-yl}-7,8-dihydro-6H-pyrimido[5,4-b][1,4]oxazine]
< 25 | < 25 | Fc1ccc(-c2cn(CCN3CCC3)c(C3CCN(c4ncnc5c4OCCN5)CC3)n2)cc1Cl [Compound A13, 4-{4-[1-(2-Azetidin-1-yl-ethyl)-4-(3-chloro-4-fluoro-phenyl)-1H-imidazol-2-yl]-piperidin-1-yl}-7,8-dihydro-6H-pyrimido[5,4-b][1,4]oxazine]
< 25 | 26 to 100 | CN(C)CCn1cc(-c2ccc(F)c(C(F)(F)F)c2)nc1C1CCN(c2ncnc3c2CCC3)CC1 [Compound A14, {2-[2-[1-(6,7-Dihydro-5H-cyclopentapyrimidin-4-yl)-piperidin-4-yl]-4-(4-fluoro-3-trifluoromethyl-phenyl)-imidazol-1-yl]-ethyl}-dimethylamine]
< 25 | 101 to 500 | Cc1cc(-c2cn(CCN(C)C)c(C3CCN(c4ncnc5c4CCC5)CC3)n2)ccc1F [Compound A15, {2-[2-[1-(6,7-Dihydro-5H-cyclopentapyrimidin-4-yl)-piperidin-4-yl]-4-(4-fluoro-3-methyl-phenyl)-imidazol-1-yl]-ethyl}-dimethylamine]
< 25 | 26 to 100 | COc1cc(-c2cn(CCN(C)C)c(C3CCN(c4ncnc5c4CCC5)CC3)n2)ccc1F [Compound A16, {2-[2-[1-(6,7-Dihydro-5H-cyclopentapyrimidin-4-yl)-piperidin-4-yl]-4-(4-fluoro-3-methoxy-phenyl)-imidazol-1-yl]-ethyl}-dimethylamine]
< 25 | 26 to 100 | CN(C)CCn1cc(-c2ccc(F)c(Cl)c2)nc1C1CCN(c2ncnc3c2CCC3)CC1 [Compound A17, (2-{4-(3-Chloro-4-fluoro-phenyl)-2-[1-(6,7-dihydro-5H-cyclopentapyrimidin-4-yl)-piperidin-4-yl]-imidazol-1-yl}-ethyl)-dimethylamine]
26 to 100 | 101 to 500 | CN(C)CCn1cc(-c2ccnc(C(F)(F)F)c2)nc1C1CCN(c2ncnc3c2CCC3)CC1 [Compound A18, {2-[2-[1-(6,7-Dihydro-5H-cyclopentapyrimidin-4-yl)-piperidin-4-yl]-4-(2-trifluoromethyl-pyridin-4-yl)-imidazol-1-yl]-ethyl}-dimethylamine]
< 25 | < 25 | Fc1ccc(-c2cn(CCN3CCC3)c(C3CCN(c4ncnc5c4CCC5)CC3)n2)cc1Cl [Compound A19, 4-{4-[1-(2-Azetidin-1-yl-ethyl)-4-(3-chloro-4-fluoro-phenyl)-1H-imidazol-2-yl]-piperidin-1-yl}-6,7-dihydro-5H-cyclopentapyrimidine]
< 25 | < 25 | Fc1ccc(-c2cn(CCN3CCC3)c(C3CCN(c4ncnc5c4CCC5)CC3)n2)cc1C(F)(F)F [Compound A20, 4-{4-[1-(2-Azetidin-1-yl-ethyl)-4-(4-fluoro-3-trifluoromethyl-phenyl)-1H-imidazol-2-yl]-piperidin-1-yl}-6,7-dihydro-5H-cyclopentapyrimidine]
< 25 | < 25 | Cc1cc(-c2cn(CCN3CCC3)c(C3CCN(c4ncnc5c4CCC5)CC3)n2)ccc1F [Compound A21, 4-{4-[1-(2-Azetidin-1-yl-ethyl)-4-(4-fluoro-3-methyl-phenyl)-1H-imidazol-2-yl]-piperidin-1-yl}-6,7-dihydro-5H-cyclopentapyrimidine]
< 25 | < 25 | COc1cc(-c2cn(CCN3CCC3)c(C3CCN(c4ncnc5c4CCC5)CC3)n2)ccc1F [Compound A22, 4-{4-[1-(2-Azetidin-1-yl-ethyl)-4-(4-fluoro-3-methoxy-phenyl)-1H-imidazol-2-yl]-piperidin-1-yl}-6,7-dihydro-5H-cyclopentapyrimidine]
< 25 | 26 to 100 | FC(F)(F)c1cc(-c2cn(CCN3CCC3)c(C3CCN(c4ncnc5c4CCC5)CC3)n2)ccn1 [Compound A23, 4-{4-[1-(2-Azetidin-1-yl-ethyl)-4-(2-trifluoromethyl-pyridin-4-yl)-1H-imidazol-2-yl]-piperidin-1-yl}-6,7-dihydro-5H-cyclopentapyrimidine]
< 25 | < 25 | Cc1cc(-c2cn(CCN(C)C)c(C3CCN(c4ncnc5c4CCN5)CC3)n2)ccc1F [Compound A24, {2-[2-[1-(6,7-Dihydro-5H-pyrrolo[2,3-d]pyrimidin-4-yl)-piperidin-4-yl]-4-(4-fluoro-3-methyl-phenyl)-imidazol-1-yl]-ethyl}-dimethylamine]
